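A five-concentration, 48-hour dose response in 96-well plates underlies each endpoint, interpolated linearly between surrounding concentrations. GI50: concentration for 50% inhibition of growth.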 The source made the active and inactive calls. No stated cut-off is given here; in the data, active = GI50 up to about 1.1 µM and inactive = higher.
How the values were obtained:
Assay in all cases: growth of human tumour cells (NCI), 48 h
[1] = test system: SF-295
[2] = test system: HT-29
[3] = test system: KM12
[4] = test system: UO-31
[5] = test system: CCRF-CEM
[6] = test system: NCI-H522
[7] = test system: SK-MEL-28
[8] = test system: SK-OV-3
[9] = test system: M14
[10] = test system: Malme-3M
[11] = test system: SK-MEL-5
[12] = test system: Hs-578T
[13] = test system: EKVX
[14] = test system: MOLT-4
[15] = test system: COLO 205
[16] = test system: NCI-H460
[17] = test system: SNB-19
[18] = test system: HCT-116
[19] = test system: SF-268
[20] = test system: ACHN
[21] = test system: UACC-257
[22] = test system: IGROV-1
[23] = test system: SN12C
[24] = test system: U-251
[25] = test system: CAKI-1
[26] = test system: NCI-H23
[27] = test system: NCI-H226
[28] = test system: SF-539
[29] = test system: PC-3
[30] = test system: TK-10
[31] = test system: SK-MEL-2
[32] = test system: RPMI-8226
[33] = test system: A549
[34] = test system: MDA-MB-231
[35] = test system: MDA-MB-435
[36] = test system: 786-0
[37] = test system: MDA-N
[38] = test system: DU-145
[39] = test system: SW-620
[40] = test system: HOP-92
[41] = test system: HOP-62
[42] = test system: OVCAR-4
[43] = test system: RXF 393
[44] = test system: K562
[45] = test system: MCF7
[46] = test system: NCI/ADR-RES
[47] = test system: LOX IMVI
[48] = test system: UACC-62
[49] = test system: OVCAR-3
[50] = test system: OVCAR-8
[51] = test system: OVCAR-5
[52] = test system: HCT-15
[53] = test system: T47D
[54] = test system: HCC 2998
[55] = test system: SNB-75
[56] = test system: HL-60
[57] = test system: A498

**Q.** What does the source list for `Cc1cccc(C)c1NC(=S)N/C=C(\C#N)C(N)=O`?
**A.** GI50 [1]: > 100 µM (inactive); GI50 [2]: > 100 µM (inactive); GI50 [3]: > 100 µM (inactive); GI50 [4]: > 100 µM (inactive); GI50 [5]: > 100 µM (inactive); GI50 [6]: > 100 µM (inactive); GI50 [7]: > 100 µM (inactive); GI50 [8]: > 100 µM (inactive); GI50 [9]: > 100 µM (inactive); GI50 [10]: > 100 µM (inactive); GI50 [11]: > 100 µM (inactive); GI50 [12]: > 100 µM (inactive); GI50 [13]: > 100 µM (inactive); GI50 [14]: > 100 µM (inactive); GI50 [15]: > 100 µM (inactive); GI50 [16]: > 100 µM (inactive); GI50 [17]: > 100 µM (inactive); GI50 [18]: > 100 µM (inactive); GI50 [19]: > 100 µM (inactive); GI50 [20]: > 100 µM (inactive); GI50 [21]: > 100 µM (inactive); GI50 [22]: > 100 µM (inactive); GI50 [23]: > 100 µM (inactive); GI50 [24]: > 100 µM (inactive); GI50 [25]: > 100 µM (inactive); GI50 [26]: > 100 µM (inactive); GI50 [27]: > 100 µM (inactive); GI50 [28]: > 100 µM (inactive); GI50 [29]: > 100 µM (inactive); GI50 [30]: > 100 µM (inactive); GI50 [31]: > 100 µM (inactive); GI50 [32]: > 100 µM (inactive); GI50 [33]: > 100 µM (inactive); GI50 [34]: > 100 µM (inactive); GI50 [35]: > 100 µM (inactive); GI50 [36]: > 100 µM (inactive); GI50 [37]: > 100 µM (inactive); GI50 [38]: > 100 µM (inactive); GI50 [39]: > 100 µM (inactive); GI50 [40]: > 100 µM (inactive); GI50 [41]: > 100 µM (inactive); GI50 [42]: > 100 µM (inactive); GI50 [43]: > 100 µM (inactive); GI50 [44]: > 100 µM (inactive); GI50 [45]: > 100 µM (inactive); GI50 [46]: > 100 µM (inactive); GI50 [47]: > 100 µM (inactive); GI50 [48]: > 100 µM (inactive); GI50 [49]: > 100 µM (inactive); GI50 [50]: > 100 µM (inactive); GI50 [51]: > 100 µM (inactive); GI50 [52]: > 100 µM

**Q.** For `CC(=O)/N=S(/NC(=O)c1ccc(C)cc1)C(Cl)(Cl)Cl` (configuration not stated), which GI50 [1] is on record?
**A.** Its GI50 is > 100 µM (inactive).

**Q.** And the GI50 [2]?
**A.** Its GI50 is 23.6 µM (inactive).

**Q.** What about the GI50 [3] of the same compound?
**A.** Its GI50 is > 100 µM (inactive).

**Q.** What about the GI50 [4] of the same compound?
**A.** Its GI50 is 26.1 µM (inactive).

**Q.** And the GI50 [5]?
**A.** Its GI50 is 18.6 µM (inactive).

**Q.** And the GI50 [7]?
**A.** Its GI50 is 46.7 µM (inactive).

**Q.** And the GI50 [8]?
**A.** The GI50 was 70 µM (inactive).

**Q.** What about the GI50 [9] of the same compound?
**A.** Its GI50 is 15.7 µM (inactive).

**Q.** And the GI50 [10]?
**A.** Its GI50 is 29.6 µM (inactive).

**Q.** And the GI50 [11]?
**A.** The GI50 was 33.3 µM (inactive).

**Q.** And the GI50 [12]?
**A.** Its GI50 is 59.3 µM (inactive).

**Q.** And the GI50 [13]?
**A.** Its GI50 is 44.5 µM (inactive).

**Q.** And the GI50 [14]?
**A.** Its GI50 is 25.1 µM (inactive).

**Q.** And the GI50 [15]?
**A.** Its GI50 is 19.8 µM (inactive).

**Q.** And the GI50 [16]?
**A.** Its GI50 is 38.5 µM (inactive).

**Q.** And the GI50 [17]?
**A.** Its GI50 is 94.8 µM (inactive).

**Q.** What about the GI50 [18] of the same compound?
**A.** The GI50 was 31 µM (inactive).

**Q.** And the GI50 [19]?
**A.** Its GI50 is 97.1 µM (inactive).

**Q.** What about the GI50 [20] of the same compound?
**A.** The GI50 was 41 µM (inactive).

**Q.** What about the GI50 [21] of the same compound?
**A.** Its GI50 is 44 µM (inactive).

**Q.** What about the GI50 [22] of the same compound?
**A.** Its GI50 is 38.6 µM (inactive).

**Q.** And the GI50 [23]?
**A.** Its GI50 is 37.9 µM (inactive).

**Q.** What about the GI50 [24] of the same compound?
**A.** The GI50 was 22 µM (inactive).

**Q.** And the GI50 [26]?
**A.** The GI50 was 24.1 µM (inactive).

**Q.** What about the GI50 [27] of the same compound?
**A.** The GI50 was > 100 µM (inactive).

**Q.** And the GI50 [28]?
**A.** The GI50 was 77.1 µM (inactive).

**Q.** And the GI50 [29]?
**A.** Its GI50 is > 100 µM (inactive).

**Q.** And the GI50 [30]?
**A.** Its GI50 is > 100 µM (inactive).

**Q.** And the GI50 [53]?
**A.** Its GI50 is 34.3 µM (inactive).

**Q.** And the GI50 [54]?
**A.** The GI50 was 15.1 µM (inactive).

**Q.** What about the GI50 [32] of the same compound?
**A.** The GI50 was 74.3 µM (inactive).

**Q.** And the GI50 [33]?
**A.** The GI50 was > 100 µM (inactive).

**Q.** And the GI50 [34]?
**A.** Its GI50 is 26.2 µM (inactive).

**Q.** What about the GI50 [35] of the same compound?
**A.** The GI50 was 19.1 µM (inactive).

**Q.** And the GI50 [36]?
**A.** Its GI50 is 18 µM (inactive).

**Q.** What about the GI50 [37] of the same compound?
**A.** The GI50 was 55.6 µM (inactive).

**Q.** And the GI50 [38]?
**A.** The GI50 was > 100 µM (inactive).

**Q.** What about the GI50 [55] of the same compound?
**A.** Its GI50 is 45.3 µM (inactive).

**Q.** And the GI50 [39]?
**A.** Its GI50 is 15.8 µM (inactive).

**Q.** And the GI50 [40]?
**A.** Its GI50 is > 100 µM (inactive).

**Q.** What about the GI50 [41] of the same compound?
**A.** Its GI50 is 56.4 µM (inactive).

**Q.** And the GI50 [42]?
**A.** The GI50 was 31.2 µM (inactive).

**Q.** And the GI50 [43]?
**A.** The GI50 was 44.6 µM (inactive).

**Q.** What about the GI50 [44] of the same compound?
**A.** The GI50 was 23.9 µM (inactive).

**Q.** And the GI50 [45]?
**A.** The GI50 was 51.9 µM (inactive).

**Q.** What about the GI50 [56] of the same compound?
**A.** The GI50 was 0.226 µM (active).

**Q.** And the GI50 [46]?
**A.** The GI50 was 20.4 µM (inactive).

**Q.** What about the GI50 [47] of the same compound?
**A.** Its GI50 is 29.7 µM (inactive).

**Q.** What about the GI50 [48] of the same compound?
**A.** Its GI50 is 99.3 µM (inactive).

**Q.** What about the GI50 [49] of the same compound?
**A.** Its GI50 is 20.9 µM (inactive).

**Q.** And the GI50 [50]?
**A.** Its GI50 is 15.6 µM (inactive).

**Q.** What about the GI50 [51] of the same compound?
**A.** The GI50 was 36.2 µM (inactive).

**Q.** And the GI50 [52]?
**A.** The GI50 was 42.8 µM.

**Q.** Which results are given for `O=C1Cc2c([nH]c3ccc(Cl)cc23)-c2ccccc2N1`?
**A.** GI50 [1]: > 100 µM (inactive); GI50 [4]: > 100 µM (inactive); GI50 [6]: > 100 µM (inactive); GI50 [7]: > 100 µM (inactive); GI50 [8]: > 100 µM (inactive); GI50 [9]: > 100 µM (inactive); GI50 [10]: > 100 µM (inactive); GI50 [11]: > 100 µM (inactive); GI50 [12]: > 100 µM (inactive); GI50 [15]: > 100 µM (inactive); GI50 [16]: > 100 µM (inactive); GI50 [17]: > 100 µM (inactive); GI50 [18]: 3.17 µM (inactive); GI50 [19]: > 100 µM (inactive); GI50 [20]: > 100 µM (inactive); GI50 [22]: > 100 µM (inactive); GI50 [23]: > 100 µM (inactive); GI50 [24]: > 100 µM (inactive); GI50 [26]: > 100 µM (inactive); GI50 [27]: > 100 µM (inactive); GI50 [30]: > 100 µM (inactive); GI50 [53]: > 100 µM (inactive); GI50 [32]: > 100 µM (inactive); GI50 [57]: > 100 µM (inactive); GI50 [33]: > 100 µM (inactive); GI50 [34]: > 100 µM (inactive); GI50 [35]: > 100 µM (inactive); GI50 [36]: > 100 µM (inactive); GI50 [37]: > 100 µM (inactive); GI50 [55]: > 100 µM (inactive); GI50 [40]: > 100 µM (inactive); GI50 [42]: > 100 µM (inactive); GI50 [45]: > 100 µM (inactive); GI50 [46]: > 100 µM (inactive); GI50 [47]: 2.13 µM (inactive); GI50 [48]: 74.6 µM (inactive); GI50 [50]: > 100 µM (inactive)
